Results on two compounds are retold here after ChEMBL document CHEMBL1201862, “PubChem BioAssay data set” (2004).

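Test compounds were applied to cells in 96-well plates for 48 hours at 5 doses. Here, GI50 denotes the concentration required for 50% inhibition of growth.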 Calls of active or inactive are those of the source. Cut-off read from the data, not from the text of the source: active = GI50 up to about 1.1 µM and inactive = higher. Where only a bound is given, the exact number is not on record here.

Common to all, as to assay: NCI anticancer screen, dose series, 48 h
The subject of assay [1] is LXFL 529.
The subject of assay [2] is M19-MEL.
Assay [3] deals with XF498.
Assay [4] concerns KM-20L2.
The subject of assay [5] is RXF 631.
Assay [6] concerns DMS-114.
Assay [7] relates to SNB-78.
Assay [8] deals with DMS-273.
Assay [9] has as its system HOP-18.

As for `O=C1c2c(O)cccc2C(C(=O)CCCCCC(=O)C2c3cccc(O)c3C(=O)c3c(O)cccc32)c2cccc(O)c21`, the GI50 in [1] was 0.697 µM (active); in [2] it was 0.857 µM (active); in [3] it was 0.46 µM (active); in assay [4], 5.51 µM (inactive); in assay [5], 1.26 µM (inactive); in [6] it was 0.512 µM (active). For the same compound, the GI50 in assay [7] was 0.681 µM (active); in [8] it was 4.98 µM (inactive); in assay [9], 1.16 µM (inactive).

For `CC(CN(C)C)C(=O)c1ccccc1` (stereo not drawn), the GI50 was 18 µM (inactive) in [1]; 19.1 µM (inactive) in [2]; 21.3 µM (inactive) in [3]; > 51.8 µM (inactive) in assay [4]; > 86.3 µM (inactive) in assay [5]; 26.6 µM (inactive) in assay [6]. Also, the results for the GI50 in assay [7], in [8] and in [9] were 31 µM (inactive), > 100 µM (inactive) and > 100 µM (inactive), respectively.
